Values after ≈ are worked out from the molar mass of the structure shown.
What was measured:
[1] = test system: MCF-7 human breast tumor cells; test: MTT growth inhibition, MCF-7; assay type: cell-based; conditions: MCF7, 144 h, MCF-7, MTT, 6 days, read-out: Growth Inhibitory Activity IC50
Procedure: (§1) Camptothecin was used as a control to test the anti-cancer efficacy of the novel camptothecin analogs of the present invention.
(§2) Murine B16 melanoma cell line was grown in RPMI 1640 medium supplemented with 10% heat-inactivated fetal bovine serum, 2 mM L-glutamine, 50 units/mL penicillin, 50 μg/mL streptomycin, 25 μg/mL gentamicin, 0.75% sodium bicarbonate 10 mM HEPES buffer (pH 7.4), and 0.06 mg/mL AntiPPLO. Murine P388 leukemic cell line and human HT-29 colon adenocarcinoma line were maintained in RPMI 1640 medium supplemented with 10% heat-inactivated fetal bovine serum. […] MCF-7M human breast adenocarcinoma was maintained in IMEM supplemented with 5% non heat-inactivated fetal bovine serum and 1 nM insulin.
(§3) [See "Rapid Colorimetric Assay For Cellular Growth And Survival: Application To Proliferation And Cytotoxicity Assays," J. Immun. Meth. 65:55 (1983)]. The assay utilizes a tetrazolium salt to quantitatively measure mammalian cell survival and proliferation by colorimetric methods. In particular, MTT, a pale yellow compound with minimal absorbance, is incubated with cancerous cells in addition to (or in the absence of) a particular camptothecin analog. Living cells with active mitochondrial enzymes metabolize the MTT into a dark blue/purple formazan product with high absorbance. The exact procedure used to test the camptothecin analogs of the present invention is described below.
(§4) Exponentially growing cells (1-2×10^3 cells, unless specified otherwise) in 0.1 mL medium were seeded on day 0 in a 96-well microtiter plate. On day 1, 0.1 mL aliquots of medium containing graded concentrations of test analogs were added to the cell plates. After incubation at 37° C. in a humidified incubator for 3 days (P388, P388/CPT, B16) or 6 days (HT-29, MCF-7M), the plates were centrifuged briefly and 100 μL of the growth medium was removed. Cell cultures were incubated with 50 μL of 3-(4,5-dimethylthiazol-2-yl)-2,5-diphenyl-tetrazolium bromide [MTT, 1 mg/mL in Dulbecco's phosphate buffered saline (PBS)] for 4 hr at 37° C. The resulting purple formazan precipitate was solubilized with 200 μL of 0.04 N HCl in isopropyl alcohol. Absorbance was monitored in a BioRad Model 3550 Microplate Reader at a test wavelength of 570 nm and a reference wavelength of 630 nm. The absorbance is transferred to a PC 486 computer. The IC50 values were determined by a computer program (EZ-ED50) that fits all of the data to the following four-parameter logistic equation:
(§5) Y=(Amax -Amin)/(1+[X/IC^50 ])^n +Amin
(§6) where Amax is the absorbance of control cells, Amin is the absorbance of cells in the presence of highest agent concentration, IC^50 is the concentration of agent that inhibits the cell growth by 50% of control cells (based on the absorbance) and n is the slope of the curve.

tumor cells = test: MTT growth inhibition across tumor cell lines (P388, P388/CPT, B16, HT-29, MCF-7M); assay type: cell-based; conditions: for growth inhibitory activity: comparison in words
Procedure: as §3
as §4, with “equation: […]” for “equation:”

[2] = test system: P388/CPT CPT-resistant murine leukemia cells; test: MTT growth inhibition, P388/CPT; assay type: cell-based; conditions: Mus musculus, 72 h, 3 days, read-out: Growth Inhibitory Activity IC50
Procedure: as §1, §2, §3, §4, §5, §6

[3] = test system: MX-1 human breast tumor xenograft; test: in vivo
Source text: For all the models, the vehicle used to deliver the analog of interest was isotonic saline.
For the MX-1 human breast tumor xenograft models, the following procedure was used. Nude mice are implanted s.c. by trocar with fragments of MX-1 mammary carcinomas harvested from s.c. growing MX-1 tumors in nude mice hosts. When tumors are approximately 5 mm×5 mm in size (usually about ten days after inoculation), the animals are pair-matched into treatment and control groups. Each group contains ten tumored mice, each of which is ear-tagged and followed individually throughout the experiment. The administration of drugs or vehicle begins the day the animals are pair-matched (day 1). The doses, route of drug administration and schedule are selected as appropriate for the study in question. If the MTD dose of an agent is not known, it is determined in an initial dosing experiment in non-tumored mice. In a typical experiment, drugs are given at their MTD and 1/2 MTD doses i.p. on a daily×5 schedule.
The experiment is usually terminated when control tumors reach a size of 2-3 g. Mice are weighed twice weekly, and tumor measurements are taken by calipers twice weekly, starting on day 1. These tumor measurements are converted to mg tumor weight by a well known formula, and from these calculated tumor weights the termination date can be determined. Upon termination, all mice are weighed, sacrificed, and their tumors excised. Tumors are weighed, and the mean tumor weight per group is calculated.
Some drugs cause tumor shrinkage in the MX-1 model. With these agents, the final weight of a given tumor is subtracted from its own weight at the start of the treatment on day 1. This difference divided by the initial tumor weight is the % shrinkage. A mean % tumor shrinkage can be calculated from data from the mice in a group that experienced MX-1 regressions. If the tumor completely disappears in a mouse, this is considered a complete regression or complete tumor shrinkage. If desired, mice with partial or total tumor regressions can be kept alive past the termination date to see whether they live to become long term, tumor-free survivors.
Note that in the following table the abbreviation SR refers to tumor shrinkage rate, while those entries followed by a superscripted `2` are tumor growth inhibition rates, not tumor shrinkage rates.

For `CC[C@@]1(O)C(=O)OCc2c1cc1n(c2=O)Cc2c-1nc1ccccc1c2CO[C@@H]1C=C[C@H](OC(C)=O)[C@@H](COC(C)=O)O1` [HAR4, 7-[4,6-di-O-acetyl-2,3-dideoxy-α-D-erythro-hex-2-enopyranosyl]oxymethylcamptothecin], the IC50 [1] was 0.0027 µg/mL (≈ 0.00457 µM), the growth inhibitory activity (tumor cells) was “quite similar to those of camptothecin” and the “potency in inhibiting growth of tumor cells” value (tumor cells; more potent than HAR7) was 2-3 fold. For the same compound, the IC50 [2] was 7.04 µg/mL (≈ 11.9 µM), the “complete disappearance of tumors (animals)” value ([3]; 10 mg/kg) was 2 and the “Tox Deaths” value ([3]; 10 mg/kg i.p. daily×5) was 0/10. The “ΔWeight (%)” value ([3]; 10 mg/kg i.p. daily×5) was -10.2%, the “SR(%) (Tumor Shrinkage Rate)” value ([3]; 10 mg/kg i.p. daily×5, 8/10 animals) was 77% and the “Shrinkage (animals)” value ([3]; 10 mg/kg i.p. daily×5, partial (77%)) was 8/10. For the same compound, the “SR(%) (Tumor Shrinkage Rate)” value ([3]; 10 mg/kg, 2/10 animals) was 100%, the “Shrinkage (animals)” value ([3]; 10 mg/kg, complete (100%) shrinkage) was 2/10 and the “mice with tumor shrinkage” value ([3]; 10 mg/kg, mean 77%) was 8. For the same compound, the “SR(%) (Tumor Shrinkage Rate)” value ([3]; 20 mg/kg i.p. daily×5) was 99%, the “Shrinkage (animals)” value ([3]; 20 mg/kg i.p. daily×5) was 1/10 and the “Tox Deaths” value ([3]; 20 mg/kg i.p. daily×5) was 9/10. The toxicity ([3]; 20 mg/kg, in words) was “toxic” and the “antitumor activity vs. MX-1” value ([3]; in words) was “almost equivalent, outstanding activity”.
In the case of `CC[C@@]1(O)C(=O)OCc2c1cc1n(c2=O)Cc2c-1nc1ccccc1c2CO[C@@H]1C=C[C@H](O[C@H]2O[C@H](COC(C)=O)[C@@H](OC(C)=O)[C@H](OC(C)=O)[C@H]2OC(C)=O)[C@@H](COC(C)=O)O1` [HAR5, 7-[6-O-acetyl-4-O-(2,3,4,6-tetra-O-acetyl-α-D-glucopyranosyl)-2,3-dideoxy-α-D-erythro-hex-2-enopyranosyl]oxymethylcamptothecin], the IC50 [1] is reported as 0.01 µg/mL (≈ 0.0114 µM), the growth inhibitory activity (tumor cells) is reported as “more cytotoxic than camptothecin hydroxyl maltal (HAR6)” and the IC50 [2] is reported as 21.2 µg/mL (≈ 24.1 µM). The “Tox Deaths” value ([3]; 100 mg/kg i.p. daily×5) was 0/10, the “animals with tumor growth inhibition (Shrinkage column)” value ([3]; 100 mg/kg i.p. daily×5) was 10/10 and the “ΔWeight (%)” value ([3]; 100 mg/kg i.p. daily×5) was “+7.4%”. For the same compound, the “Tumor growth inhibition rate (footnote 2, SR column)” value ([3]; 100 mg/kg i.p. daily×5, 10/10 animals) was 48%, the “mice with growth inhibition” value ([3]; 200 mg/kg) was 7 and the “mice with tumor shrinkage” value ([3]; 200 mg/kg) was 3. For the same compound, the “Shrinkage (animals)” value ([3]; 200 mg/kg i.p. daily×5) was 3/10, the “Tox Deaths” value ([3]; 200 mg/kg i.p. daily×5) was 0/10 and the “animals with tumor growth inhibition (Shrinkage column)” value ([3]; 200 mg/kg i.p. daily×5) was 7/10. The “ΔWeight (%)” value ([3]; 200 mg/kg i.p. daily×5) was “+5.3%”, the “SR(%) (Tumor Shrinkage Rate)” value ([3]; 200 mg/kg i.p. daily×5, 3/10 animals) was 73% and the “Tumor growth inhibition rate (footnote 2, SR column)” value ([3]; 200 mg/kg i.p. daily×5, 7/10 animals) was 82%.
In the case of `CC[C@@]1(O)C(=O)OCc2c1cc1n(c2=O)Cc2c-1nc1ccccc1c2CO[C@@H]1C=C[C@H](O[C@H]2O[C@H](CO)[C@@H](O)[C@H](O)[C@H]2O)[C@@H](CO)O1` [HAR6, 7-[4-O-(α-D-glucopyranosyl)-2,3-dideoxy-α-D-erythro-hex-2-enopyranosyl]-oxymethylcamptothecin], the IC50 [1] is reported as 0.111 µg/mL (≈ 0.166 µM), the IC50 [2] is reported as 28.4 µg/mL (≈ 42.5 µM) and the “mice with growth inhibition” value ([3]; 50 mg/kg) is reported as 2. For the same compound, the “mice with tumor shrinkage” value ([3]; 50 mg/kg) was 8, the “SR(%) (Tumor Shrinkage Rate)” value ([3]; 50 mg/kg i.p. daily×5) was 81% and the “Shrinkage (animals)” value ([3]; 50 mg/kg i.p. daily×5) was 8/10. The “Tox Deaths” value ([3]; 50 mg/kg i.p. daily×5) was 0/10, the “ΔWeight (%)” value ([3]; 50 mg/kg i.p. daily×5) was “+2.5%” and the tumor growth inhibition ([3]; 50 mg/kg, remaining 2 animals) was 82%. For the same compound, the body weight loss ([3]; 100 mg/kg) was “approximately 19%”, the drug-related deaths ([3]; 100 mg/kg) was “the tenth animal died of toxicity and one” and the “mice with tumor shrinkage” value ([3]; 100 mg/kg) was 9. For the same compound, the “SR(%) (Tumor Shrinkage Rate)” value ([3]; 100 mg/kg i.p. daily×5) was 94%, the “Shrinkage (animals)” value ([3]; 100 mg/kg i.p. daily×5) was 9/10 and the “Tox Deaths” value ([3]; 100 mg/kg i.p. daily×5) was 1/10. The “ΔWeight (%)” value ([3]; 100 mg/kg i.p. daily×5) was -18.6% and the “antitumor activity vs. MX-1” value ([3]; in words) was “impressive antitumor activity vs. MX-1”.
`CC[C@@]1(O)C(=O)OCc2c1cc1n(c2=O)Cc2c-1nc1ccccc1c2CO[C@@H]1C=C[C@H](O)[C@@H](CO)O1` [HAR7, 7-[2,3-dideoxy-α-D-erythro-hex-2-enopyranosyl]-oxymethylcamptothecin] was tested, and the IC50 [1] was 0.0064 µg/mL (≈ 0.0126 µM), the growth inhibitory activity (tumor cells) was “quite similar to those of camptothecin” and the IC50 [2] was 18.7 µg/mL (≈ 36.9 µM). The “mice with tumor shrinkage” value ([3]; 20 mg/kg) was 10, the “SR(%) (Tumor Shrinkage Rate)” value ([3]; 20 mg/kg i.p. daily×5) was 98% and the “Shrinkage (animals)” value ([3]; 20 mg/kg i.p. daily×5) was 10/10. The “Tox Deaths” value ([3]; 20 mg/kg i.p. daily×5) was 0/10, the “ΔWeight (%)” value ([3]; 20 mg/kg i.p. daily×5) was -0.05% and the weight loss ([3]; 20 mg/kg, in words) was “virtually no weight loss”. For the same compound, the “SR(%) (Tumor Shrinkage Rate)” value ([3]; 40 mg/kg i.p. daily×5) was 98%, the “Shrinkage (animals)” value ([3]; 40 mg/kg i.p. daily×5) was 5/10 and the “Tox Deaths” value ([3]; 40 mg/kg i.p. daily×5) was 4/10. The “ΔWeight (%)” value ([3]; 40 mg/kg i.p. daily×5) was -25.0%, the toxicity ([3]; 40 mg/kg, in words) was “produced lethality” and the “antitumor activity vs. MX-1” value ([3]; in words) was “almost equivalent, outstanding activity”.
